Results as given in PubChem BioAssay (NCI).
Values joined by “and” are separate entries in the source; they are usually repeats but may differ in a detail not shown here. Equal values may be shown once.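 Step 1: Grow cells in 96-well plates. Step 2: Expose to compound for 48 hours at 5 concentrations. Step 3: Interpolate endpoints linearly; if unreached, use highest concentration. GI50 is the concentration that inhibits growth by half. Definition used: TGI = concentration required for complete inhibition of growth.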

Experiments:
Experiment in all cases: growth of human tumour cells (NCI), 48 h
NCI-H226 lung = test system: NCI-H226 lung
786-0 renal = test system: 786-0 renal
RXF 393 renal = test system: RXF 393 renal
UO-31 renal = test system: UO-31 renal
K-562 leukemia = test system: K-562 leukemia
UACC-62 melanoma = test system: UACC-62 melanoma
MCF7 breast = test system: MCF7 breast
MDA-MB-435 = test system: MDA-MB-435
ACHN renal = test system: ACHN renal
SK-MEL-28 melanoma = test system: SK-MEL-28 melanoma

| SMILES | GI50 (NCI-H226 lung) | TGI (NCI-H226 lung) | GI50 (786-0 renal) | TGI (786-0 renal) | GI50 (RXF 393 renal) | TGI (RXF 393 renal) | GI50 (UO-31 renal) | TGI (UO-31 renal) | GI50 (K-562 leukemia) | TGI (K-562 leukemia) | GI50 (UACC-62 melanoma) | TGI (UACC-62 melanoma) | GI50 (MCF7 breast) | TGI (MCF7 breast) | GI50 (MDA-MB-435) | TGI (MDA-MB-435) | GI50 (ACHN renal) | TGI (ACHN renal) | GI50 (SK-MEL-28 melanoma) | TGI (SK-MEL-28 melanoma) |
| --- | --- | --- | --- | --- | --- | --- | --- | --- | --- | --- | --- | --- | --- | --- | --- | --- | --- | --- | --- | --- |
| Cc1cn2c(/C=N/N=C(N)N)c(-c3cccs3)nc2s1 | 4.18 µM | 18.9 µM | 2.42 µM | 6.06 µM | 10200 nM | 46.2 µM | 16.6 µM | 38.9 µM | 2.06 µM | 5.43 µM | 1.64 µM | 3.12 µM | 2790 nM | 13.7 µM | 4.96 µM | 18.5 µM | 2120 nM | 5 µM |  |  |
| COc1ccc(C(=O)c2cc3c(N)c(C(=O)Nc4ccc(C)cc4)sc3nc2C)cc1 | 4.22 µM | 30.8 µM | 4.48 µM | 19.1 µM | 2480 nM | 9.38 µM | 3.11 µM | 27.3 µM | 1.28 µM | > 100 µM | 12.2 µM | > 100 µM | 1430 nM | > 100 µM | 0.275 µM | 1.35 µM | 5280 nM | 29.2 µM | 13.6 µM | > 100 µM |
| COc1cc(Nc2nc3ccccc3cc2C(=O)Nc2ccc(F)c(F)c2)cc(OC)c1OC | 2.55 µM | 7.93 µM | 3.38 µM | > 100 µM | 2730 nM | 7.98 µM | 2.51 µM | 9.35 µM | 3.31 µM | > 100 µM | 1.68 µM | 4.46 µM | 2160 nM | 8.4 µM | 2.19 µM | 5.17 µM | 2510 nM | 7.59 µM | 3.54 µM | > 100 µM |
| CN1C(=O)N[C@H]2[C@@H]3NC(=O)c4ccc(Br)n4[C@@H]3C[C@]21O | 0.212 µM | 2.64 µM | 0.223 µM | 1.82 µM | 56.5 nM | 0.486 µM | 1.81 µM | 6.75 µM | 0.0827 µM | 1.43 µM | 0.0861 µM | 1.18 µM | 28.1 nM | 1.08 µM | 0.156 µM | 1.72 µM | 187 nM | 2.93 µM | 0.0317 µM | 0.262 µM |
| CC(C)(C)CC(C)(C)NCc1cc(C(C)(C)C)cc(CNC(C)(C)CC(C)(C)C)c1O | 2.25 µM | 8.89 µM | 3.85 µM | 14.4 µM | 1920 nM | 5.85 µM | 1.92 µM | 9.91 µM | 2.2 µM | 9.45 µM | 3.34 µM | 12.3 µM | 3120 nM | 11.3 µM | 2.56 µM | 10.9 µM | 2810 nM | 10.8 µM | 5.24 µM | 17.6 µM |
| COC(=O)Cc1ccc(Oc2cnc3cc(F)c(F)cc3n2)cc1 | 52.9 µM | > 100 µM | > 100 µM | > 100 µM | > 100000 nM | > 100 µM | > 100 µM | > 100 µM | 31.1 µM | 94.8 µM | > 100 µM | > 100 µM | > 100000 nM | > 100 µM | > 100 µM | > 100 µM | > 100000 nM | > 100 µM | > 100 µM | > 100 µM |
| N#CCN/C=C\C(=O)c1ccc(Cl)cc1 | 30 µM | > 100 µM | 33.4 µM | > 100 µM | 40800 nM | > 100 µM | 42.1 µM | > 100 µM | 31.1 µM | > 100 µM | 15.7 µM | 49.3 µM | 32500 nM | > 100 µM | 30.3 µM | > 100 µM |  |  | 40.1 µM | > 100 µM |
| CCCCCCCCCCCCCCCCCC(=O)OCC(COC(=O)CCCN)OC(=O)CCCN (configuration not stated) |  | 44.4 µM |  | 34.3 µM |  | 32.5 µM |  | 3.63 µM |  | > 100 µM |  | 35.3 µM |  | 47.1 µM |  | 33.2 µM |  | > 100 µM |  | 34.4 µM |
| O=C(O)C(Cl)(c1ccccc1)c1ccccc1 |  | > 100 µM |  | > 100 µM |  | > 100 µM |  | > 100 µM |  | > 100 µM |  | > 100 µM |  | > 100 µM |  | > 100 µM |  | > 100 µM |  | > 100 µM |
| Cc1ccc(S(=O)(=O)NNC(=O)c2cc(C)c(C)cc2N)cc1 |  | > 100 µM |  | > 100 µM |  | > 100 µM |  | > 100 µM |  | > 100 µM |  | > 100 µM |  | > 100 µM |  | > 100 µM |  | > 100 µM |  | > 100 µM |
| COc1ccc(OC)c(-c2cc(-c3ccc(Cl)cc3)nn2-c2ccc(S(=O)(=O)NC(C)=O)cc2)c1 | 4.07 µM | 23.1 µM | 3.03 µM | 12.1 µM | 23100 nM | > 100 µM | 34.8 µM | > 100 µM | 3.18 µM | > 100 µM | 3.22 µM | 11.2 µM | 26400 nM | > 100 µM | 45.3 µM | > 100 µM | 3230 nM | 11.1 µM | 21.3 µM | 57.9 µM |
| C=C(Nc1ccc([N+](=O)[O-])cc1[N+](=O)[O-])c1c/c(=N\NC(N)=S)c2ccccc2o1 |  | > 100 µM |  | > 100 µM |  | > 100 µM |  | > 100 µM |  |  |  | > 100 µM |  | > 100 µM |  | > 100 µM |  | > 100 µM |  | > 100 µM |
| CO[C@H](C(=O)[C@@H](O)[C@@H](C)O)[C@@H]1Cc2cc3cc(OC4CC(OC5CC(O)C(O)C(C)O5)C(O)C(C)O4)c(C)c(O)c3c(O)c2C(=O)[C@H]1OC1CC(OC2CC(OC3CC(C)(O)C(O)C(C)O3)C(O)C(C)O2)C(O)C(C)O1 (some centres not stated) | 0.0179 µg/mL and 0.0115 µg/mL |  | 0.0255 µg/mL and 0.0152 µg/mL and 713 nM |  | 0.0201 µg/mL |  | 0.132 µg/mL and 0.225 µg/mL |  | 0.0253 µg/mL and 0.017 µg/mL |  | 0.011 µg/mL |  | 0.0143 µg/mL and 0.0152 µg/mL |  | 0.0222 µg/mL and 0.0246 µg/mL and 1.25 µM |  |  |  | 0.02 µg/mL and 0.0182 µg/mL |  |
| COc1ccc(OC)c2c1[nH]c(=O)c1c3ncccc3cn21 | 2.41 µM | > 100 µM | 5.44 µM | > 100 µM | 1380 nM | 4.47 µM | 2.49 µM | > 100 µM | 3.62 µM | > 100 µM | 4.43 µM | > 100 µM | 2170 nM | 27.3 µM | 3.85 µM | > 100 µM | 2030 nM | > 100 µM |  |  |
